Measurements as given in ChEMBL document CHEMBL4396865, “Current advances of triazole alcohols derived from fluconazole: Design, in vitro and in silico studies” (2019).
In brackets after ≈: the same amount, converted by molar mass.

Columns and labels:
Format in all cases: functional
[1] = test system: Candida albicans; test: Antifungal activity against Candida albicans; settings: Candida albicans
[2] = test system: Candida parapsilosis; test: Antifungal activity against Candida parapsilosis; settings: Lodderomyces parapsilosis
[3] = test system: Candida tropicalis; test: Antifungal activity against Candida tropicalis; settings: Candida tropicalis
[4] = test system: Kluyveromyces marxianus; test: Antifungal activity against Candida kefyr; settings: Kluyveromyces marxianus
[5] = test system: Cryptococcus neoformans; test: Antifungal activity against Cryptococcus neoformans; settings: Cryptococcus neoformans
[6] = test system: Trichophyton rubrum; test: Antifungal activity against Trichophyton rubrum; settings: Trichophyton rubrum
[7] = test system: Aspergillus fumigatus; test: Antifungal activity against Aspergillus fumigatus; settings: Aspergillus fumigatus
[8] = test system: Candida albicans; test: Antifungal activity against Candida albicans ATCC 76615 after 24 hrs by microbroth dilution method; settings: ATCC 76615, 24 h
[9] = test system: Candida albicans; test: Potency index, ratio of fluconazole MIC to test compound MIC for Candida albicans
[10] = test system: Candida albicans; test: Antifungal activity against Candida albicans CA98001; settings: Candida albicans, CA98001; read-out: MIC
[11] = test system: Candida albicans; test: Antifungal activity against Candida albicans DSY735; settings: Candida albicans, DSY735; read-out: MIC
[12] = test system: Candida albicans; test: Antifungal activity against Candida albicans CAAL-74; settings: Candida albicans, CAAL-74; read-out: MIC
[13] = test system: Pichia kudriavzevii; test: Antifungal activity against Candida krusei CK506; settings: Pichia kudriavzevii, CK506; read-out: MIC
[14] = test system: Pichia kudriavzevii; test: Antifungal activity against Candida krusei CK8; settings: Pichia kudriavzevii, CK8; read-out: MIC
[15] = test system: Nakaseomyces glabratus; test: Antifungal activity against Candida glabrata CG468; settings: Nakaseomyces glabratus, CG468; read-out: MIC
[16] = test system: Candida parapsilosis; test: Antifungal activity against Candida parapsilosis CAPA1; settings: Lodderomyces parapsilosis, CAPA1; read-out: MIC
[17] = test system: Candida parapsilosis; test: Antifungal activity against Candida parapsilosis CAPA2; settings: Lodderomyces parapsilosis, CAPA2; read-out: MIC
[18] = test system: Aspergillus fumigatus; test: Antifungal activity against Aspergillus fumigatus AF98003
[19] = test system: Candida albicans; test: Antifungal activity against Candida albicans ATCC SC5314 after 24 hrs; settings: ATCC SC5314, 24 h
[20] = test system: Candida parapsilosis; test: Antifungal activity against Candida parapsilosis after 24 hrs; settings: Lodderomyces parapsilosis
[21] = test system: Pichia kudriavzevii; test: Antifungal activity against Candida krusei after 24 hrs
[22] = test system: Cryptococcus neoformans; test: Antifungal activity against Cryptococcus neoformans after 24 hrs
[23] = test system: Nannizzia gypsea; test: Antifungal activity against Microsporum gypseum after 24 hrs
[24] = test system: Trichophyton rubrum; test: Antifungal activity against Trichophyton rubrum after 24 hrs
[25] = test system: Aspergillus fumigatus; test: Antifungal activity against Aspergillus fumigatus after 24 hrs
[26] = test system: Candida albicans; test: Antifungal activity against Candida albicans Y0109 after 24 hrs; settings: Y0109, 24 h
[27] = test system: Candida albicans; test: Antifungal activity against Candida albicans after 48 hrs by NCCLS protocol based method
[28] = test system: Candida parapsilosis; test: Antifungal activity against Candida parapsilosis after 48 hrs by NCCLS protocol based method; settings: Lodderomyces parapsilosis
[29] = test system: Pichia norvegensis; test: Antifungal activity against Candida mycoderma

## OC(CN1CCC(OCc2cccc(Cl)c2)CC1)(Cn1cncn1)c1ccc(F)cc1F (stereo not given)
[1]
  MIC80: 0.01 µM (≈ 0.00463 µg/mL)
[2]
  MIC80: 0.01 to 2.33 µM (≈ 0.00463 to 1.08 µg/mL)
[3]
  MIC80: 0.01 to 2.33 µM (≈ 0.00463 to 1.08 µg/mL)
[4]
  MIC80: 0.01 to 2.33 µM (≈ 0.00463 to 1.08 µg/mL)
[5]
  MIC80: 0.01 to 2.33 µM (≈ 0.00463 to 1.08 µg/mL)
[6]
  MIC80: 0.03 to 0.15 µM (≈ 0.0139 to 0.0694 µg/mL)
[7]
  MIC80: 0.55 to 2.33 µM (≈ 0.255 to 1.08 µg/mL)
[8]
  MIC80: 0.01 to 2.33 µM (≈ 0.00463 to 1.08 µg/mL)
[9]
  Ratio: 82

## CN(Cc1ccc(S(N)(=O)=O)cc1)CC(O)(Cn1cncn1)c1ccc(F)cc1F (stereo not given)
[10]
  MIC: 0.001 to 0.069 µg/mL (≈ 0.00229 to 0.158 µM)
[11]
  MIC: 0.001 to 0.069 µg/mL (≈ 0.00229 to 0.158 µM)
[12]
  MIC: 0.001 to 0.069 µg/mL (≈ 0.00229 to 0.158 µM)
[13]
  MIC: 0.001 to 0.069 µg/mL (≈ 0.00229 to 0.158 µM)
[14]
  MIC: 0.001 to 0.069 µg/mL (≈ 0.00229 to 0.158 µM)
[15]
  MIC: 0.001 to 0.069 µg/mL (≈ 0.00229 to 0.158 µM)
[16]
  MIC: 0.001 to 0.069 µg/mL (≈ 0.00229 to 0.158 µM)
[17]
  MIC: 0.001 to 0.069 µg/mL (≈ 0.00229 to 0.158 µM)
[18]
  MIC: 0.767 to 3.57 µg/mL (≈ 1.75 to 8.16 µM)

## OC(Cc1cn(CCOCc2ccc(Br)cc2)nn1)(Cn1cncn1)c1ccc(F)cc1F (stereo not given)
[19]
  MIC: 0.0156 to 0.0625 µg/mL (≈ 0.03 to 0.12 µM)
[20]
  MIC: 0.0156 to 0.0625 µg/mL (≈ 0.03 to 0.12 µM)
[21]
  MIC: 0.0156 to 0.0625 µg/mL (≈ 0.03 to 0.12 µM)
[22]
  MIC: 0.0156 to 0.0625 µg/mL (≈ 0.03 to 0.12 µM)
[23]
  MIC: 0.0156 to 0.0625 µg/mL (≈ 0.03 to 0.12 µM)
[24]
  MIC: 0.0156 to 0.0625 µg/mL (≈ 0.03 to 0.12 µM)
[25]
  MIC: 0.0156 to 0.0625 µg/mL (≈ 0.03 to 0.12 µM)
[26]
  MIC: 0.0156 to 0.0625 µg/mL (≈ 0.03 to 0.12 µM)

## C[C@H](CCCn1cc(CC(O)(Cn2cncn2)c2ccc(F)cc2F)nn1)[C@H]1CC[C@H]2[C@@H]3CC[C@@H]4C[C@H](O)CC[C@]4(C)[C@H]3C[C@H](O)[C@]12C (stereo not given in full)
[27]
  MIC: 3.12 to 6.25 µg/mL (≈ 4.68 to 9.37 µM)
[28]
  MIC: 3.12 to 6.25 µg/mL (≈ 4.68 to 9.37 µM)

## CC(C)CNS(=O)(=O)c1ccc(CN(C)CC(O)(Cn2cncn2)c2ccc(F)cc2F)cc1 (stereo not given)
[10]
  MIC: 0.001 to 0.069 µg/mL (≈ 0.00203 to 0.14 µM)
[11]
  MIC: 0.001 to 0.069 µg/mL (≈ 0.00203 to 0.14 µM)
[12]
  MIC: 0.001 to 0.069 µg/mL (≈ 0.00203 to 0.14 µM)
[13]
  MIC: 0.001 to 0.069 µg/mL (≈ 0.00203 to 0.14 µM)
[14]
  MIC: 0.001 to 0.069 µg/mL (≈ 0.00203 to 0.14 µM)
[15]
  MIC: 0.001 to 0.069 µg/mL (≈ 0.00203 to 0.14 µM)
[16]
  MIC: 0.001 to 0.069 µg/mL (≈ 0.00203 to 0.14 µM)
[17]
  MIC: 0.001 to 0.069 µg/mL (≈ 0.00203 to 0.14 µM)
[18]
  MIC: 0.767 to 3.57 µg/mL (≈ 1.55 to 7.23 µM)

## CCCc1ccc(NS(=O)(=O)c2ccc(CN(C)CC(O)(Cn3cncn3)c3ccc(F)cc3F)cc2)cc1 (stereo not given)
[10]
  MIC: 0.001 to 0.069 µg/mL (≈ 0.0018 to 0.124 µM)
[11]
  MIC: 0.001 to 0.069 µg/mL (≈ 0.0018 to 0.124 µM)
[12]
  MIC: 0.001 to 0.069 µg/mL (≈ 0.0018 to 0.124 µM)
[13]
  MIC: 0.001 to 0.069 µg/mL (≈ 0.0018 to 0.124 µM)
[14]
  MIC: 0.001 to 0.069 µg/mL (≈ 0.0018 to 0.124 µM)
[15]
  MIC: 0.001 to 0.069 µg/mL (≈ 0.0018 to 0.124 µM)
[16]
  MIC: 0.001 to 0.069 µg/mL (≈ 0.0018 to 0.124 µM)
[17]
  MIC: 0.001 to 0.069 µg/mL (≈ 0.0018 to 0.124 µM)
[18]
  MIC: 0.767 to 3.57 µg/mL (≈ 1.38 to 6.42 µM)

## O=C(O)c1cn(C2CC2)c2c(Cl)c(N3CCC(NCC(O)(Cn4cncn4)c4ccc(F)cc4F)C3)c(F)cc2c1=O (stereo not given)
[1]; read-out: MIC
  MIC: 0.25 to 2 µg/mL (≈ 0.415 to 3.32 µM)
[29]
  MIC: 0.25 to 2 µg/mL (≈ 0.415 to 3.32 µM)

## COC(=O)CC[C@@H](C)[C@H]1CC[C@H]2[C@@H]3CC[C@@H]4C[C@@H](n5cc(CC(O)(Cn6cncn6)c6ccc(F)cc6F)nn5)CC[C@]4(C)[C@H]3C[C@H](O)[C@]12C (stereo not given in full)
[27]
  MIC: 3.12 to 6.25 µg/mL (≈ 4.49 to 8.99 µM)
[28]
  MIC: 3.12 to 6.25 µg/mL (≈ 4.49 to 8.99 µM)
